Where two headings read alike, the source gives them in different places.
Key:
[1] = test system: C. elegans wild-type strain N2; assay: Same C. elegans pumping assay format using wild-type strain N2; format: in vivo; conditions: read-out: EC50 (μM) Wild type worm N2
Source text: (§1) The screening of the compounds according to the present invention has been performed in the C. elegans based high-throughput screen for Kv4.3 modulators described above. The method for testing the activity on human Kv4.3 of the compounds according to the invention with C. elegans strains expressing human Kv4.3 for their activity is the same as the method described in WO 03/097682. The method for testing the compounds on wild-type C. elegans strains not expressing human Kv4.3 is the same as the method described in WO 00/63427. Briefly, UG1755 animals have been grown in large numbers and staged young adults (no or only few eggs inside the uterus) have been harvested on the day of screening. Approximately 125 animals in 80 μl buffer have been dispensed per well of a “U shaped 96-well compound plate The compound plate contained already compound material at a final concentration of 30 μM in 0.3% DMSO. After one hour incubation 10 μl of the fluorescent label Calcein AM (CAM) have been added to achieve a final concentration of 5 μM CAM and 0.8% DMSO. After another four hours of incubation at 20° C., the drinking of C. elegans animals (or the “reaction 8 measured by the uptake of CAM) has been stopped by adding 10 μl of a 60 μM ivermectin solution. The fluorescence intensity (counts per second) has been measured 40 minutes after adding ivermectin with the Wallac plate reader at a wavelength of 535 nm (after excitation at 485 nm).
These compounds have been also tested in the same assay format using a C. elegans wild-type strain N2 and the corresponding EC50 has been calculated. The ratio of the EC50s obtained for a compound on the two strains (transgenic expressing human Kv4.3 and wild-type) gives an indication on whether said compound is acting on human Kv4.3. […]

human Kv4.3 = target: T1, human Kv4.3 (Homo sapiens, UniProt Q9UK17); assay: C. elegans based high-throughput screen for Kv4.3 modulators (pharynx pumping, Calcein AM uptake), transgenic strain UG1755; format: in vivo; conditions: for Ratio N2/Kv4.3: EC50 on N2 divided by EC50 on the Kv4.3 expressing strain, cut-off 1.8; for EC50: transgenic strain UG1755 expressing human Kv4.3, read-out: EC50 (μM) Kv4.3 worm
T1 construct: expressed in transfected cells; host or cells: transgenic C. elegans strain UG1755 (N2 injected with plasmid pGV8, integrated array)
T1 sequence (Q9UK17 1-655): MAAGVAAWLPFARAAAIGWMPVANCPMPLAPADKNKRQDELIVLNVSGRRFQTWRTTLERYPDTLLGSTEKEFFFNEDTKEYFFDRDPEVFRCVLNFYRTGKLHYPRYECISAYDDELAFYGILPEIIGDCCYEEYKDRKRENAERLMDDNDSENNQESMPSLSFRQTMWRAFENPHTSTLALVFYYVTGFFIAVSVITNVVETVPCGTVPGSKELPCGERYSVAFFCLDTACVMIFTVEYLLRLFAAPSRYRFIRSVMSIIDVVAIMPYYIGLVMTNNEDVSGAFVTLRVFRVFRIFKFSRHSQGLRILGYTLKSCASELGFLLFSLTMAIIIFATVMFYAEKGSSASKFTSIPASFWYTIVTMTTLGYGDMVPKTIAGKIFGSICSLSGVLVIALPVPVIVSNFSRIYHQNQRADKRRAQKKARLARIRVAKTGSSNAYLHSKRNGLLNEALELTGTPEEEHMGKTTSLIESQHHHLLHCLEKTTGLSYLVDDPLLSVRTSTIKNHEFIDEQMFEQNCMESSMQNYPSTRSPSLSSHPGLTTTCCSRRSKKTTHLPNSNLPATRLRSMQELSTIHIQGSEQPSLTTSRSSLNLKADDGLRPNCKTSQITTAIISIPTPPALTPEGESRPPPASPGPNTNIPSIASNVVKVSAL
Source text: A C. elegans based high-throughput screen for Kv4.3 modulators has been used to establish an in vivo SAR (structure-activity relationships: the effect of chemical structure on biological activity) on Kv4.3 for the compounds according to the present invention.
This assay has employed a stable transgenic C. elegans strain that functionally expressed human Kv4.3 in the pharynx and a visible selection GFP maker in body-wall muscle.
The pharynx is the feeding organ of C. elegans and contracts rhythmically 3-4 times per second. The pharynx contraction is controlled by the nervous system via action potentials similar to the human myocyte and can thus be used to study human ion channel physiology in vivo in C. elegans.
Introducing the human Kv4.3 channel into the C. elegans pharynx influences the C. elegans action potential in a characteristic fashion. The additional number of potassium channels increases potassium ion efflux, enhances re-polarization and thereby shortens the action potential duration. […] The shortened action potentials of the C. elegans pharynx resulting from expression of human Kv4.3, changes the pharynx contraction-relaxation cycle and consequently reduces the pumping/feeding in these transgenic animals. This change of pumping is an end-point amenable to high-throughput screening technology. The pumping end-point can be technically translated into a high-throughput read-out by the use of a pro-fluorescent dye. The pro-fluorescent dye is taken up by C. elegans depending on its pumping activity and converted into a fluorescent dye by enzymes located in its intestines. After a defined incubation period, the change of fluorescence intensity in the intestine can be measured with a plate reader.
as §1
The active compounds have been identified and confirmed by dose-response analysis. An EC50 has been calculated and the results are listed under Table 3. Dose-response curves have been obtained at concentrations of 30 μM. EC50 has been calculated using XLfit 2.09 software package.

[2] = target: T2, human Kv4.3/KChIP2.2 potassium channel (Homo sapiens, UniProt Q9UK17); assay: Whole cell patch clamp, CHO-K1 cells stably expressing human Kv4.3/KChIP2.2; format: cell-based; conditions: CHO-K1
T2 construct: expressed in transfected cells
T2 sequence (Q9UK17 1-655): T1 sequence (Q9UK17 1-655)
Method: For this experiment, a recombinant CHO-K1 cell line stably expressing the human Kv4.3/KChIP2.2 potassium channel was used. The cells used for this experiment were kept in continuous culture under standard conditions (37° C., air supplemented with 7% CO2). The CHO-K1 Kv4.3/KChIP2.2 cells were kept in Iscove s modified DMEM (Dulbecco's Modified Eagle's Medium) medium (IMEM) supplemented with 100 U/ml Penicillin, 100 μg/ml Streptomycin, 7% fetal calf serum (FCS), 2.5 μg/ml amphotericin, 400 μg/ml G418, and 400 μg/ml Zeocin™. Cells were passed every 3-4 days after detachment using a Trypsin solution. The quality of the cultured cells was guaranteed by vitality and contamination tests. The culture of the cells was performed as described in protocol D hereunder.
10 mM stock solutions of the compounds were prepared in DMSO. Solutions of the compounds were prepared by dilution of stock solution in bath solution. If the required stock solution volume was theoretically below 1 μl, bath solutions with higher compound concentration were used for dilution. The maximal DMSO concentration during experiments was 0.1% (v/v).
Activity of the human Kv4.3/KChIP2.2 channel was investigated using the patch clamp technique in its whole cell mode. This means that the current needed for clamping the whole cell expressing the K^+-channel protein to a specific potential was measured. Experiments were performed using a patch clamp set-up. Technical equipment needed for manipulation of the cells was placed on a vibration-isolated table and shielded with a Faraday cage to minimize electrical noise. The amplifier and control system were placed in a rack outside the Faraday cage. The system consisted of an EPC9 or EPC10 patch clamp amplifier (HEKA, Lambrecht, Germany), and the perfusion system DADVC8 (ALA Scientific, New York, USA) controlled by the Pulse software package (HEKA, Lambrecht, Germany) installed on a personal computer. The pipettes used for patch clamping were made of borosilicate glass.
Measurements were performed at room temperature (20-25° C.). In each experiment (i.e. each cell) only one concentration of the compounds was investigated no cumulative dosages were performed. Each cell acted as its own control. […]
Between voltage pulses the cell was clamped to a holding potential of −80 mV (inside). The test protocols are illustrated in FIG. 1 and Table 4. The test protocol illustrated in FIG. 1a was used to characterize the properties of the Kv4.3/KChIP2.2 channel and to check the quality of the individual patch clamp experiment (voltage control). […] Each test protocol consisted of 4 segments.
After the whole cell configuration was established a current-voltage curve (IV activation 1; FIG. 1a and Table 4a) was recorded under constant superfusion with bath solution to check for Kv4.3/KChIP2.2 expression and the quality of the individual patch clamp experiment (voltage control). Subsequently, 14 test pulses (series 1; FIG. 1b and Table 4b) were applied at 0.1 Hz under constant superfusion with bath solution. The protocol was initiated by a voltage jump to 100 mV (400 ms) to achieve full inactivation. Then the Kv4.3/KChIP2.2 channels were transferred to the open state by depolarization to +40 mV for 300 milliseconds (activation). Only cells generating current amplitudes between 1 nA and 50 nA were used for the experimental procedure. No or negligible rundown was observed.
Then, 36 test pulses (series 2) were applied at 0.1 Hz under constant superfusion with the compound dissolved in bath solution. Finally, another current-voltage curve was recorded in the presence of the compounds (IV activation 2).
Three different types of analysis were used: Inhibition at the peak current, inhibition of translocated charge and inhibition 75 ms after activation at +40 mV (sustained current). The peak current/charge/current at 75 ms was determined using the online analysis tool of the HEKA pulse software package. […]

[3] = remaining current measured after application of the compound and relative to the blank, read-out: Kv4.3 charge in %
[4] = remaining peak height measured after application of the compound and relative to the blank, read-out: Kv4.3 peak in %

| SMILES | EC50 ([1]; Caenorhabditis elegans) [µM] | Ratio N2/Kv4.3 (human Kv4.3) | EC50 (human Kv4.3) [µM] | EC50 [1] [µM] | melting point [°C] | remaining activity at 1 µM [2, 3] [%] | remaining activity at 1 µM [2, 4] [%] |
| --- | --- | --- | --- | --- | --- | --- | --- |
| Cc1nc(Nc2ccc(F)cc2)sc1C(=O)N[C@@H](C)c1ccc2ccccc2c1 [Compound 15, 2-(4-fluoro-phenylamino)-4-methyl-thiazole-5-carboxylic acid (S)-1-(naphthalen-2-yl)ethyl amide] | 24 | 2.4 | 10.1 | – | – | – | – |
| Cc1nc(Nc2ccc(Br)cc2)sc1C(=O)N[C@H](C)c1ccc([N+](=O)[O-])cc1 [Compound 22, 2-(4-bromo-phenylamino)-4-methyl-thiazole-5-carboxylic acid (R)-1-(4-nitrophenyl)ethyl amide] | > 30 | >2.6 | 11.7 | – | – | – | – |
| Cc1nc(Nc2ccc(Br)cc2)sc1C(=O)NCc1cc(C(F)(F)F)cc(C(F)(F)F)c1 [Compound 24, 2-(4-bromo-phenylamino)-4-methyl-thiazole-5-carboxylic acid 3,5-bis-trifluoromethyl-benzylamide] | > 30 | >1.7 | 17.1 | – | – | – | – |
| C[C@@H](NC(=O)c1csc(Nc2ccc(F)cc2)n1)c1ccc([N+](=O)[O-])cc1 [Compound 36, 2-(4-fluoro-phenylamino)-thiazole-4-carboxylic acid (R)-1-(4-nitro-phenyl)ethyl amide] | 45 | 2.0 | 22.7 | – | – | – | – |
| COc1ccccc1Nc1nc(C)c(C(=O)NCc2ccc(-c3csnn3)cc2)s1 [Compound 161, 2-(2-methoxy-phenylamino)-4-methyl-thiazole-5-carboxylic acid 4-[1,2,3]thiadiazol-4-yl-benzylamide] | – | – | – | – | 191.6 to 194.5 | 75 | 89 |
| COc1ccccc1Nc1nc(C)c(C(=O)N2CCC(c3ccccc3OC)CC2)s1 [Compound 165, [2-(2-methoxy-phenylamino)-4-methyl-thiazol-5-yl]-[4-(2-methoxy-phenyl)-piperidin-1-yl]-methanone] | – | – | – | – | 134.5 to 139 | 80 | 100 |
| COc1ccccc1Nc1nc(C)c(C(=O)N2CCC(n3c(=O)[nH]c4ccccc43)CC2)s1 [Compound 170, 1-{1-[2-(2-methoxy-phenylamino)-4-methyl-thiazole-5-carbonyl]-piperidin-4-yl}-1,3-dihydro-benzoimidazol-2-one] | – | – | – | – | > 250 | 90 | 97 |

The remaining lines, values ahead:

| EC50 ([1]; Caenorhabditis elegans) [µM] | Ratio N2/Kv4.3 (human Kv4.3) | EC50 (human Kv4.3) [µM] | EC50 [1] [µM] | melting point [°C] | remaining activity at 1 µM [2, 3] [%] | remaining activity at 1 µM [2, 4] [%] | SMILES |
| --- | --- | --- | --- | --- | --- | --- | --- |
| 23 | 3.8 | 6 | – | – | – | – | O=C(N[C@@H]1CCC[C@H]1OCc1ccccc1)c1csc(Nc2ccc(F)cc2)n1 [Compound 37, 2-(4-fluoro-phenylamino)-thiazole-4-carboxylic acid (1R,2R)-2-(benzyloxycyclopent-1-yl) amide] |
| 44 | 2.5 | 17.3 | – | – | – | – | O=C(N[C@@H]1CCCC[C@H]1OCc1ccccc1)c1csc(Nc2ccc(F)cc2)n1 [Compound 38, 2-(4-fluoro-phenylamino)-thiazole-4-carboxylic acid (1R,2R)-2-(benzyloxycyclohex-1-yl) amide] |
| – | 2.2 | 22 | 48 | – | – | – | O=C(N[C@H]1CCCC[C@@H]1OCc1ccccc1)c1csc(Nc2ccc(Cl)cc2)n1 [Compound 41, 2-(4-chloro-phenylamino)-thiazole-4-carboxylic acid (1S,2S)-2-(benzyloxycyclohex-1-yl) amide] |
| – | – | – | – | 185.1 to 185.8 | 86 | 98 | Cc1nc(NCc2ccccc2)sc1C(=O)N[C@H]1CCC[C@@H]1OCc1ccccc1 [Compound 211, 2-benzylamino-4-methyl-thiazole-5-carboxylic acid ((1S,2S)-2-benzyloxycyclopent-1-yl) amide] |

Reference: patent US20080125432A1 (Devgen NV, priority 2004, published 2008)
